Patent US12729377B2, “RNAi agents and compositions for inhibiting expression of angiopoietin-like 3 (ANGPTL3), and methods of use” (Arrowhead Pharmaceuticals, Inc., priority 2017, dated 2026)
In the oligonucleotide strings, read from the 5' end, every base follows the letter of its sugar. An asterisk marks phosphorothioate; unmarked linkages are phosphodiester. Other units and linkages are bracketed, terminal groups are in braces. A string of capitals states the bases alone. {NAG37} = tridentate N-acetyl-galactosamine targeting ligand, structure (NAG37)s; [invAb] = inverted abasic unit; m = 2'-O-methyl; f = 2'-fluoro

Key:
ANGPTL3 protein = assay: Example 11: dose response, serum ANGPTL3 protein by ELISA in mice; assay type: in vivo, C57bl/6 mice
Method: To assess the dose response of ANGPTL3 RNAi agent AD05488, six- to eight-week-old female C57bl/6 mice were used. Pre-dose serum samples were taken at day −1 after a four hour fast. At day 1, each mouse was given a single subcutaneous administration of 200 μl containing the respective mg/kg dose of an ANGPTL3 RNAi agent in D5W (dextrose in 5% water), or control (D5W) with no RNAi agent, according to the dosing groups recited in Table 53:
The RNAi agent tested (AD05488) included a modified sequence and an N-acetyl-galactosamine-containing targeting ligand conjugated to the 5′ terminal end of the sense strand. (See Tables 3, 4, and 5 for modified sequences and targeting ligand structures). The injections were performed between the skin and muscle (i.e. subcutaneous injections) into the loose skin over the neck and shoulder area. Four (4) mice in each group were tested (n=4). Serum was collected on days 8, 15, 22, and 29. Mice were fasted for four hours prior to each collection. ANGPTL3 protein levels in serum were measured by ELISA assay (R&D Systems), according to the manufacturer's recommendations. Triglycerides, total cholesterol, high-density lipoprotein (HDL), and low-density lipoprotein (LDL) in serum were measured on a Cobas® Integra 400 (Roche Diagnostics), according to the manufacturer's recommendations.
(§1) The ANGPTL3 protein levels, triglyceride levels, total cholesterol levels, HDL levels, and LDL levels for each animal were normalized. For normalization, the level of ANGPTL3 protein, triglyceride, HDL, and total cholesterol, respectively, for each animal at a time point, was divided by the pre-treatment level of expression in that animal (in this case at day −1) to determine the ratio of expression “normalized to pre-treatment.” Expression at a specific time point was then normalized to the D5W control group by dividing the “normalized to pre-treatment” ratio for an individual animal by the mean “normalized to pretreatment” ratio of all mice in the D5W control group.

ANGPTL3 gene [1] = assay: Example 6: serum LDL in mice; assay type: in vivo, C57bl/6 mice
Method: To assess the in vivo activity of additional ANGPTL3 RNAi agents that are designed to target position 304 on the ANGPTL3 gene, six- to eight-week-old female C57bl/6 mice were used. Pre-dose serum samples were taken at day −1 after a four hour fast. At day 1, each mouse was given a single subcutaneous administration of 200 μl containing 0.5 mg/kg (mpk) of an ANGPTL3 RNAi agent in D5W (dextrose in 5% water), or control (D5W) with no RNAi agent, according to the dosing groups recited in Table 25.
Each of the RNAi agents included a modified sequence and an N-acetyl-galactosamine-containing targeting ligand conjugated to the 5′ terminal end of the sense strand. (See Tables 3, 4, and 5 for modified sequences and targeting ligand structures). The injections were performed between the skin and muscle (i.e. subcutaneous injections) into the loose skin over the neck and shoulder area. Three (3) mice in each group were tested (n=3). Serum was collected on days 8, 15, 22, 30, and on day 43 for certain groups (i.e., Groups 1, 2, 5, and 10 only). Mice were fasted for four hours prior to each collection. ANGPTL3 protein levels in serum were measured by ELISA assay (R&D Systems), according to the manufacturer's recommendations. Triglycerides, total cholesterol, high-density lipoprotein (HDL), and low-density lipoprotein (LDL) in serum were measured on a Cobas® Integra 400 (Roche Diagnostics), according to the manufacturer's recommendations.
as §1

ANGPTL3 gene [2] = assay: Example 9: serum triglycerides in cynomolgus monkeys; assay type: in vivo, cynomolgus macaque (Macaca fascicularis); conditions: 2.0 mg/kg single SC injection day 1, cynos, n=3
Method: Additional ANGPTL3 RNAi agents were evaluated in cynomolgus monkeys. On day 1, cynomolgus macaque (Macaca fascicularis) primates (also referred to herein as “cynos”) were administered a single subcutaneous injection of 0.3 mL/kg (approximately 2-3 mL volume, depending on animal mass) containing 2.0 mg/kg of an ANGPTL3 RNAi agent, which included either AD05488, AD05743, AD05775, or AD05841, each formulated in saline. […] ANGPTL3 RNAi agents AD05488, AD05743, and AD05775 included nucleotide sequences designed to target position 304 of the ANGPTL3 gene. ANGPTL3 RNAi agent AD05841 included nucleotide sequences designed to target position 1035 of the ANGPTL3 gene.
Three (3) cynos in each group were tested (n=3). Blood samples were drawn and serum samples were analyzed on days −14 (predose), −7 (predose), 1 (pre-dose), 8, 15, 22, 29, and 35. Cynos were fasted overnight prior to each collection. ANGPTL3 protein levels in serum were measured by ELISA assay (R&D Systems), according to the manufacturer's recommendations. Triglycerides, total cholesterol, high-density lipoprotein (HDL), and low-density lipoprotein (LDL) in serum were measured on a Cobas® Integra 400 (Roche Diagnostics), according to the manufacturer's recommendations.
The ANGPTL3 protein levels, triglyceride levels, total cholesterol levels, HDL levels, and LDL levels for each animal were normalized. For normalization, the level of ANGPTL3 protein, triglyceride, HDL, and total cholesterol, respectively, for each animal at a time point, was divided by the average pre-treatment level of expression in that animal (in this case at days −14, −7, and 1) to determine the ratio of expression “normalized to pre-treatment.”

AD05488: RNAi agent duplex: antisense AM07235-AS, sense AM07234-SS (antisense mU*fA*mC*fUmGfAmUfCmAfAmAfUmAfUmGfUmUfGmAfG*mC; sense {NAG37}*[invAb]*mGmCmUmCmAmAmCmAfUfAfUmUmUmGmAmUmCmAmGmUmA*[invAb])
Avg ANGPTL3 Protein Normalized to Pre-Treatment and Control (ANGPTL3 protein; 0.05 mg/kg single sc day 1, Day 8): 0.788 | Avg ANGPTL3 Protein Normalized to Pre-Treatment and Control (ANGPTL3 protein; 0.05 mg/kg single sc day 1, Day 15): 0.929 | Avg ANGPTL3 Protein Normalized to Pre-Treatment and Control (ANGPTL3 protein; 0.05 mg/kg single sc day 1, Day 22): 1.106 | Avg ANGPTL3 Protein Normalized to Pre-Treatment and Control (ANGPTL3 protein; 0.05 mg/kg single sc day 1, Day 29): 0.990 | Avg ANGPTL3 Protein Normalized to Pre-Treatment and Control (ANGPTL3 protein; 0.1 mg/kg single sc day 1, Day 8): 0.511 | Avg ANGPTL3 Protein Normalized to Pre-Treatment and Control (ANGPTL3 protein; 0.1 mg/kg single sc day 1, Day 15): 0.757 | Avg ANGPTL3 Protein Normalized to Pre-Treatment and Control (ANGPTL3 protein; 0.1 mg/kg single sc day 1, Day 22): 0.720 | Avg ANGPTL3 Protein Normalized to Pre-Treatment and Control (ANGPTL3 protein; 0.1 mg/kg single sc day 1, Day 29): 0.734 | Avg ANGPTL3 Protein Normalized to Pre-Treatment and Control (ANGPTL3 protein; 0.5 mg/kg single sc day 1, Day 8): 0.207 | Avg ANGPTL3 Protein Normalized to Pre-Treatment and Control (ANGPTL3 protein; 0.5 mg/kg single sc day 1, Day 15): 0.261 | Avg ANGPTL3 Protein Normalized to Pre-Treatment and Control (ANGPTL3 protein; 0.5 mg/kg single sc day 1, Day 22): 0.310 | Avg ANGPTL3 Protein Normalized to Pre-Treatment and Control (ANGPTL3 protein; 0.5 mg/kg single sc day 1, Day 29): 0.349 | Avg ANGPTL3 Protein Normalized to Pre-Treatment and Control (ANGPTL3 protein; 1.0 mg/kg single sc day 1, Day 8): 0.116 | Avg ANGPTL3 Protein Normalized to Pre-Treatment and Control (ANGPTL3 protein; 1.0 mg/kg single sc day 1, Day 15): 0.141 | Avg ANGPTL3 Protein Normalized to Pre-Treatment and Control (ANGPTL3 protein; 1.0 mg/kg single sc day 1, Day 22): 0.171 | Avg ANGPTL3 Protein Normalized to Pre-Treatment and Control (ANGPTL3 protein; 1.0 mg/kg single sc day 1, Day 29): 0.199 | Avg ANGPTL3 Protein Normalized to Pre-Treatment and Control (ANGPTL3 protein; 2.5 mg/kg single sc day 1, Day 8): 0.064 | Avg ANGPTL3 Protein Normalized to Pre-Treatment and Control (ANGPTL3 protein; 2.5 mg/kg single sc day 1, Day 15): 0.047 | Avg ANGPTL3 Protein Normalized to Pre-Treatment and Control (ANGPTL3 protein; 2.5 mg/kg single sc day 1, Day 22): 0.056 | Avg ANGPTL3 Protein Normalized to Pre-Treatment and Control (ANGPTL3 protein; 2.5 mg/kg single sc day 1, Day 29): 0.063 | Avg ANGPTL3 Protein Normalized to Pre-Treatment and Control (ANGPTL3 protein; 5.0 mg/kg single sc day 1, Day 8): 0.018 | Avg ANGPTL3 Protein Normalized to Pre-Treatment and Control (ANGPTL3 protein; 5.0 mg/kg single sc day 1, Day 15): 0.019 | Avg ANGPTL3 Protein Normalized to Pre-Treatment and Control (ANGPTL3 protein; 5.0 mg/kg single sc day 1, Day 22): 0.029 | Avg ANGPTL3 Protein Normalized to Pre-Treatment and Control (ANGPTL3 protein; 5.0 mg/kg single sc day 1, Day 29): 0.031 | reduction in ANGPTL3 protein (ANGPTL3 protein; dose response, single subcutaneous dose, C57bl/6 mice): reduction | Avg LDL, normalized to pre-treatment and control (ANGPTL3 gene [1]; Day 8, 0.5 mg/kg single SC injection on day 1, n=3): 0.805 | Avg LDL, normalized to pre-treatment and control (ANGPTL3 gene [1]; Day 15, 0.5 mg/kg single SC injection on day 1, n=3): 0.880 | Avg LDL, normalized to pre-treatment and control (ANGPTL3 gene [1]; Day 22, 0.5 mg/kg single SC injection on day 1, n=3): 0.991 | Avg LDL, normalized to pre-treatment and control (ANGPTL3 gene [1]; Day 30, 0.5 mg/kg single SC injection on day 1, n=3): 1.093 | Avg LDL, normalized to pre-treatment and control (ANGPTL3 gene [1]; Day 43, 0.5 mg/kg single SC injection on day 1, n=3): 0.970 | Average Triglycerides Normalized to Pre-Treatment (ANGPTL3 gene [2]; Day 8): 0.413 | Average Triglycerides Normalized to Pre-Treatment (ANGPTL3 gene [2]; Day 15): 0.403 | Average Triglycerides Normalized to Pre-Treatment (ANGPTL3 gene [2]; Day 22): 0.288 | Average Triglycerides Normalized to Pre-Treatment (ANGPTL3 gene [2]; Day 29): 0.344 | Average Triglycerides Normalized to Pre-Treatment (ANGPTL3 gene [2]; Day 35): 0.350
